Experimental data from ChEMBL document CHEMBL1151292, “Antineoplastic activity and cytotoxicity of flavones, isoflavones, and flavanones” (1979).
Converted amounts (≈) assume the structure as drawn. The source made the active and inactive calls.

How the values were obtained:
L1210 = test: In vivo antitumor activity against mouse L1210 cells; type: functional, organism-based
Walker 256 = test: In vivo antitumor activity against rat Walker 256 cells; type: functional, organism-based
CCRF S-180 = test: In vivo antitumor activity against mouse S180 cells; type: functional, organism-based
KB = test: Cytotoxicity against human KB cells; type: functional; conditions: read-out: ED50 (the source's name)
CA-755 = test: In vivo antitumor activity against mouse CA-755 cells; type: functional, organism-based
[1] = test system: Lewis lung carcinoma cell line; test: In vivo antitumor activity against mouse LLC cells; type: functional, organism-based

Row | SMILES | Activity (L1210) | Activity (Walker 256) | Activity (CCRF S-180) | EC50 (KB) [µg/mL] | Activity (CA-755) | Activity [1]
1 | COc1ccc2c(c1)C(=O)C(O)(OC)C(OC)(c1ccccc1)O2 (stereo not drawn) | inactive | inactive |  |  |  | 
2 | COC1(O)C(=O)c2ccccc2OC1(OC)c1ccc(C)cc1 (stereo not drawn) | inactive | inactive |  |  |  | 
3 | COc1ccc(-c2cc(=O)c3ccccc3o2)c(OC)c1OC | inactive |  | inactive | 13 (≈ 41.6 µM) | inactive | inactive
4 | CCOC(=O)c1oc2cc(O)cc(O)c2c(=O)c1-c1ccc(OC)cc1 | inactive |  | inactive | 21 (≈ 58.9 µM) |  | Active
5 | CCOC1(O)C(=O)c2ccccc2OC1(OCC)c1ccccc1 (stereo not drawn) | inactive | inactive |  |  |  | 
6 | Cc1oc2cc(O)ccc2c(=O)c1-c1ccccc1 | inactive | inactive |  |  |  | 
7 | O=c1cc(-c2ccccc2)oc2cc(O)ccc12 | inactive |  | inactive |  |  | inactive
8 | COc1c(OC)c(OC)c2c(=O)cc(-c3ccc(OC(C)=O)cc3)oc2c1OC |  |  | inactive | 3 (≈ 7.49 µM) | inactive | inactive
9 | O=c1cc(-c2cccc([N+](=O)[O-])c2)oc2ccccc12 | inactive |  | inactive | 2 (≈ 7.48 µM) | inactive | 
10 | O=c1cc(-c2ccc(F)cc2)oc2ccccc12 | inactive |  | inactive |  |  | inactive
11 | Nc1c(-c2ccccc2)oc2ccccc2c1=O | inactive |  | inactive | > 100 | inactive | 
12 | Cl.NC1C(=O)c2ccccc2OC1c1ccccc1 (stereo not drawn) | inactive |  | inactive | 3 | inactive | 
13 | COc1ccc(C2(OC)Oc3cc(OC)ccc3C(=O)C2(O)OC)cc1 (stereo not drawn) | inactive | inactive |  |  |  | 
14 | CC(=O)Nc1c(-c2ccccc2)oc2ccccc2c1=O | inactive |  | inactive | > 100 | inactive | 
15 | C[C@@H]1O[C@@H](Oc2c(-c3cc(O)c(O)c(O)c3)oc3cc(O)cc(O)c3c2=O)[C@H](O)[C@H](O)[C@H]1O | inactive |  | inactive | 8.3 (≈ 17.9 µM) | inactive | inactive
16 | O=C1/C(=N\O)C(c2ccccc2)Oc2ccccc21 (stereo not drawn) | inactive |  | inactive | 35 (≈ 138 µM) | inactive | 
17 | O=c1cc(-c2ccccc2F)oc2ccccc12 | inactive |  | inactive |  |  | inactive
18 | COc1c(OC)c(OC)c(-c2cc(=O)c3c(OC)c(OC)c(OC)c(OC)c3o2)c(OC)c1OC |  |  |  | 4 (≈ 8.12 µM) |  | inactive
19 | COc1ccc(-c2cc(=O)c3c(OC)c(OC)c(OC)cc3o2)cc1 | inactive |  | inactive | 27 (≈ 78.9 µM) | inactive | 
20 | COc1ccc(C2(OC)Oc3ccccc3C(=O)C2(O)O)cc1 (stereo not drawn) | inactive | inactive |  |  |  | 
21 | COc1c(OC)c(OC)c2c(=O)cc(-c3ccc4c(c3)OCO4)oc2c1OC |  | inactive |  |  |  | 

Row | SMILES | Activity (L1210) | Activity (Walker 256) | Activity (CCRF S-180) | EC50 (KB) [µg/mL] | Activity (CA-755) | Activity [1]
22 | O=c1c(O)c(-c2ccc(Cl)cc2)oc2ccccc12 | inactive | inactive |  |  |  | 
23 | O=c1c(O)c(-c2ccc(O)c(O)c2)oc2cc(O)cc(O)c12 [QUERCETIN] |  | Active |  | 25 (≈ 82.7 µM) |  | 
24 | COc1cc2oc(-c3ccc(O)cc3)cc(=O)c2c(OC)c1OC | inactive |  | inactive | 19 (≈ 57.9 µM) | inactive | 
25 | O=C1c2ccc(O)cc2OC(c2ccc(O)c(O)c2)C1O (stereo not drawn) | inactive |  | inactive |  | inactive | inactive
26 | COc1cc(-c2cc(=O)c3c(OC)c(OC)c(OC)c(OC)c3o2)cc(OC)c1OC [HEPATAMETHOXYFLAVONE] | inactive |  | inactive | 0.5 (≈ 1.16 µM) | inactive | inactive
27 | O=c1c(-c2ccc(O)cc2)coc2cc(O)cc(O)c12 [GENISTEIN] | inactive |  | inactive | 6.7 (≈ 24.8 µM) | inactive | 
28 | COc1cc(O)c2c(=O)c(O[C@@H]3O[C@H](CO[C@@H]4O[C@@H](C)[C@H](O)[C@@H](O[C@@H]5O[C@@H](C)[C@H](O)[C@@H](O)[C@H]5O)[C@H]4O)[C@@H](O)[C@H](O)[C@H]3O)c(-c3ccc(O)c(O)c3)oc2c1 | inactive |  | inactive | 8.5 (≈ 11 µM) | inactive | inactive
29 | COc1ccc2c(=O)c(N(S(C)(=O)=O)S(C)(=O)=O)c(-c3ccccc3)oc2c1CN(C)C | inactive |  | inactive | > 100 | inactive | 
30 | O=c1c(-c2ccc3c(c2)OCO3)coc2cc(O)ccc12 | inactive | inactive |  |  |  | 
31 | O=C1c2ccc(O)cc2OC(c2cc(O)c(O)c(O)c2)C1O (stereo not drawn) [DIHYDROBINETIN] | inactive |  | inactive | 23 (≈ 75.6 µM) | inactive | 
32 | COc1ccc(-c2oc3ccc(C)cc3c(=O)c2O)cc1 | inactive |  | inactive | 2 (≈ 7.08 µM) | inactive | inactive
33 | COc1ccccc1-c1cc(=O)c2ccc(OC)c(OC)c2o1 | inactive |  | inactive | 4 (≈ 12.8 µM) | inactive | inactive
34 | COc1ccc(-c2oc3cc(OC)ccc3c(=O)c2O)cc1 | inactive |  |  |  | inactive | inactive
35 | O=C1CC(c2ccc(O)cc2)Oc2cc(O)cc(O)c21 (stereo not drawn) | inactive |  | inactive |  | inactive | inactive
36 | Cc1oc2cc(O)ccc2c(=O)c1-c1ccccc1Br | inactive |  | inactive | 66 (≈ 199 µM) | inactive | 
37 | O=c1cc(-c2ccccc2)oc2ccc(F)cc12 |  |  | inactive |  |  | inactive
38 | CC(=O)Oc1cc(O)c2c(=O)c(OC(C)=O)c(-c3ccc(OC(C)=O)c(OC(C)=O)c3)oc2c1 | inactive |  | inactive | 22 (≈ 46.8 µM) | inactive | 
39 | COc1c(OC)c(OC)c2c(c1OC)OC(c1ccc(O)cc1)CC2=O (stereo not drawn) | inactive |  | inactive | 26 (≈ 72.1 µM) | inactive | 
40 | O=c1cc(-c2cccc(F)c2)oc2ccccc12 | inactive |  | inactive |  |  | inactive
41 | COc1cc(C)cc2c1OC(c1ccccc1)CC2=O.Cl (stereo not drawn) | inactive |  | inactive | 26 | inactive | 
42 | COc1ccc(-c2cc(=O)c3c(OC)c(OC)c(OC)c(OC)c3o2)c(OC)c1 |  |  | inactive | 15 (≈ 37.3 µM) |  | inactive
